Values joined by “and” are separate entries in the source; they are usually repeats but may differ in a detail not shown here. Equal values may be shown once.
Tested on: Rattus norvegicus
[1] = reproduction developmental, duration: 9 days, inhalation, F, Crl:CD(SD) BR, generation: P0, P0: Whole Body: Maternal Body Weight Change
[2] = reproduction developmental, duration: 9 days, inhalation, F, Sprague-Dawley, generation: P0, P0: General Toxicity: Whole Body: Clinical Observations + P0: General Toxicity: Whole Body: Maternal Body Weight Change
[3] = short-term, duration: 4 weeks, inhalation, F, Wistar, Multi-organ: Inorganic Phosphorous (PHOS), Blood
[4] = short-term, duration: 4 weeks, inhalation, M, Wistar, Blood: Partial Thromboplastin Time (PTT) + Liver: Cytoplasmic Vacuolation, Fatty Hepatocellular
[5] = subchronic, duration: 90 days, inhalation, F, RccHan (Wist), Blood: Large Unstained Cells + Blood: Lymphocyte + Blood: Monocytes
[6] = subchronic, duration: 90 days, inhalation, F, Wistar, General Toxicity: Whole Body: Body Weight Change + Immune: Blood: Large Unstained Cells + Immune: Blood: Lymphocyte + Immune: Blood: …
[7] = subchronic, duration: 90 days, inhalation, F, Wistar, Immune: Blood: Large Unstained Cells + Immune: Blood: Lymphocyte + Immune: Blood: Monocytes + Immune: Blood: White Blood Cell (WBC)
[8] = subchronic, duration: 90 days, inhalation, M/F, Wistar, Immune: Blood: Basophils + Immune: Blood: Eosinophils + Immune: Blood: Neutrophils
[9] = subchronic, duration: 90 days, inhalation, M, RccHan (Wist), Blood: Lymphocyte + Blood: Monocytes + Blood: White Blood Cell (WBC)
[10] = subchronic, duration: 90 days, inhalation, M, Wistar, General Toxicity: Whole Body: Body Weight Change + Immune: Blood: Large Unstained Cells + Immune: Blood: Lymphocyte + Immune: Blood: …
[11] = subchronic, duration: 90 days, inhalation, M, Wistar, Immune: Blood: Large Unstained Cells + Immune: Blood: Lymphocyte + Immune: Blood: Monocytes + Immune: Blood: White Blood Cell (WBC)
[12] = short-term, duration: 3 days, injection, subcutaneous, F, Crj:CD, uterus: uterine dry weight (absolute)
[13] = short-term, duration: 3 days, injection, subcutaneous, F, Sprague-Dawley, uterus: absolute blotted uterine weight
[14] = short-term, duration: 10 days, oral, gavage, M, BrlHan:WIST, body weight
[15] = short-term, duration: 10 days, oral, gavage, M, BrlHan:WIST, male accessory sex gland: BC/LA weight (relative)
[16] = short-term, duration: 10 days, oral, gavage, M, BrlHan:WIST, male accessory sex gland: relative bulbourethral gland weight in the presence of TP + male accessory sex gland: relative seminal vesicle …
[17] = short-term, duration: 10 days, oral, gavage, M, BrlHan:WIST, male accessory sex gland: relative ventral prostate weight in the presence of TP
[18] = short-term, duration: 28 days, oral, gavage, F, Sprague-Dawley, Liver: Liver Weight, Absolute + Liver: Liver Weight, Relative + Thyroid: Thyroid Gland Weight, Relative + Whole Body: Body Weight, Absolute…
[19] = short-term, duration: 28 days, oral, gavage, F, Sprague-Dawley, Pituitary: Thyroid stimulating hormone (TSH) + Thyroid: Thyroxine (T4), Free (Free T4)
[20] = short-term, duration: 28 days, oral, gavage, M, Sprague-Dawley, Epididymis: Epididymis Weight, Absolute + Epididymis: Epididymis Weight, Relative + Liver: Liver Weight, Relative + Liver: Liver, Abnormal …
[21] = short-term, duration: 28 days, oral, gavage, M, Sprague-Dawley, Epididymis: Epididymis, Abnormal Size + Pituitary: Thyroid stimulating hormone (TSH) + Prostate: Prostate, Abnormal Size + Seminal Vesicles…

C=CC(F)(F)C(F)(F)C(F)(F)C(F)(F)F [3,3,4,4,5,5,6,6,6-Nonafluorohexene]
NEL (developmental, duration: 9 days, inhalation, M/F, Crl:CD(SD) BR, generation: F1, F1: Uterus: Fetuses, Dead + F1: Uterus: Fetuses, Live + F1: Whole Body: Body Weight, Fetal + F1: Whole Body: External Abnormalities + F1: …): 704000 mg/m3 and 705000 mg/m3
LOAEL (developmental, duration: 9 days, inhalation, Sprague-Dawley, generation: F1, F1: Developmental: Skeleton: Skeletal Malformation + F1: Developmental: Skeleton: Skeletal Ossification Variations + F1: Developmental: Soft…): 705000 mg/m3 and 704000 mg/m3
NOAEL (developmental, duration: 9 days, inhalation, Sprague-Dawley, generation: F1, F1: Developmental: Whole Body: External Abnormalities): 70000 mg/m3
NEL (reproduction developmental, duration: 9 days, inhalation, F, Crl:CD(SD) BR, generation: P0, P0: Liver: Liver Weight, Unspecified + P0: Ovary: Corpora Lutea + P0: Uterus: Implantation + P0: Uterus: Resorptions, Early + P0: Uterus: …): 704000 mg/m3 and 705000 mg/m3
LEL [1]: 704000 mg/m3 and 705000 mg/m3
NEL [1]: 10100 mg/m3
LOAEL (reproduction developmental, duration: 9 days, inhalation, F, Sprague-Dawley, generation: P0, P0: Developmental: Uterus: Implantation + P0: Developmental: Uterus: Resorptions, Early + P0: Developmental: Uterus: Resorptions, Late + P0…): 705000 mg/m3 and 704000 mg/m3
LOAEL [2]: 705000 mg/m3 and 704000 mg/m3
NOAEL [2]: 10100 mg/m3
NEL (short-term, duration: 4 weeks, inhalation, F, Wistar, Adrenal: Adrenal Gland Weight, Absolute + Adrenal: Adrenal Gland Weight, Relative + Blood: Partial Thromboplastin Time (PTT) + Blood: …): 101000 mg/m3
LEL [3]: 101000 mg/m3
NEL [3]: 20100 mg/m3
NEL (short-term, duration: 4 weeks, inhalation, M, Wistar, Adrenal: Adrenal Gland Weight, Absolute + Adrenal: Adrenal Gland Weight, Relative + Blood: Prothrombin Time (PT) + Kidney: Kidney Weight, …): 101000 mg/m3
LEL [4]: 101000 mg/m3
NEL [4]: 20100 mg/m3
LEL [5]: 30600 mg/m3
NEL [5]: 10100 mg/m3
NEL (subchronic, duration: 90 days, inhalation, F, RccHan (Wist), Blood: White Blood Cell (WBC) + Whole Body: Body Weight Change): 103000 mg/m3
NOAEL (subchronic, duration: 90 days, inhalation, F, Wistar, General Toxicity: Whole Body: Body Weight Change): 103000 mg/m3
LOAEL [6]: 30600 mg/m3
NOAEL [6]: 10100 mg/m3
LOAEL [7]: 30600 mg/m3
NOAEL [7]: 10100 mg/m3
NEL (subchronic, duration: 90 days, inhalation, M/F, RccHan (Wist), Blood: Activated Partial Thromboplastin Time (APTT) + Blood: Basophils + Blood: Calcium (CA), Blood + Blood: Chloride (CL), Blood + Blood: …): 103000 mg/m3
LOAEL (subchronic, duration: 90 days, inhalation, M/F, Wistar, Endocrine: Blood: Glucose (GLU) + Endocrine: Blood: Triglycerides (TRIG) + Endocrine: Serum: Cholesterol (CHOL), Total + General Toxicity: …): 30600 mg/m3
LOAEL [8]: 30600 mg/m3
NOAEL [8]: 10100 mg/m3
NEL (subchronic, duration: 90 days, inhalation, M, RccHan (Wist), Blood: Large Unstained Cells + Whole Body: Body Weight Change): 103000 mg/m3
LEL [9]: 103000 mg/m3
NEL [9]: 30600 mg/m3
NOAEL (subchronic, duration: 90 days, inhalation, M, Wistar, General Toxicity: Whole Body: Body Weight Change): 103000 mg/m3
LOAEL [10]: 30600 mg/m3
NOAEL [10]: 10100 mg/m3
LOAEL [11]: 30600 mg/m3
NOAEL [11]: 10100 mg/m3

CCC(C)(c1ccc(O)cc1)c1ccc(O)cc1 [Bisphenol B]
LOEL [12]: 200 mg/kg-day
NOEL [12]: 20 mg/kg-day
LOEL [13]: 200 mg/kg-day
NOEL [13]: 20 mg/kg-day
LOEL [14]: 600 mg/kg-day
NOEL [14]: 200 mg/kg-day
NOEL (short-term, duration: 10 days, oral, gavage, M, BrlHan:WIST, body weight in the presence of TP + body weight the absence of TP + male accessory sex gland: relative bulbourethral gland weight in the …): 600 mg/kg-day
LOEL [15]: 200 mg/kg-day
NOEL [15]: 50 mg/kg-day
NOEL (short-term, duration: 10 days, oral, gavage, M, BrlHan:WIST, male accessory sex gland: Cowper's gland weight (relative) + male accessory sex gland: glans penis weight (relative) + male accessory sex …): 600 mg/kg-day
LOEL [16]: 600 mg/kg-day
NOEL [16]: 200 mg/kg-day
LOEL [17]: 200 mg/kg-day
NOEL [17]: 50 mg/kg-day

FC(F)(I)C(F)(F)C(F)(F)C(F)(F)I [Perfluoro-1,4-diiodobutane]
LOAEL [18]: 30 mg/kg-day
NOAEL [18]: 10 mg/kg-day
NOAEL (short-term, duration: 28 days, oral, gavage, F, Sprague-Dawley, Liver: Liver, Abnormal Area(s) + Liver: Liver, Abnormal Shape + Multi-organ: Follicle stimulating hormone (FSH) + Multi-organ: Luteinizing …): 30 mg/kg-day
LOAEL [19]: 10 mg/kg-day
NOAEL [19]: 3 mg/kg-day
LOAEL [20]: 30 mg/kg-day
NOAEL [20]: 10 mg/kg-day
LOAEL [21]: 10 mg/kg-day
NOAEL [21]: 3 mg/kg-day
NOAEL (short-term, duration: 28 days, oral, gavage, M, Sprague-Dawley, Liver: Liver Weight, Absolute + Liver: Liver, Abnormal Area(s) + Liver: Liver, Abnormal Shape + Liver: Liver, Abnormal Size + Multi-organ: …): 30 mg/kg-day
LOAEL (short-term, duration: 28 days, oral, gavage, M, Sprague-Dawley, Thyroid: Triiodothyronine, Free (Free T3)): 1 mg/kg-day
